Patent US20200078468A1, “NEUROTENSIN RECEPTOR BINDING CONJUGATES AND FORMULATIONS THEREOF” (priority 2016, published 2020)
pKi: −log10 of the molar value.

Molecular target: T1, human NTSR1 (Homo sapiens, UniProt P30989)
T1 construct: host or cells: HEK-293 cells (membrane preparations)
Assay: radioligand-receptor binding assay, [125I] labeled neurotensin (Eurofins Panlabs)
Conditions: [125I] neurotensin 0.02 nM, membranes from NTSR1 expressing HEK-293 cells, 45 minute incubation, Cheng and Prusoff; read-out: NTSR1 binding Ki
Protocol: Conjugates were assessed in an in vitro assay evaluating binding to NTSR1. A radioligand-receptor binding assay was conducted at Eurofins Panlabs (Taiwan) to determine the affinity of conjugates described herein to NTSR1. The assay measures binding of radiolabeled ligand, [^125I] labeled neurotensin, to human NTSR1 using membrane preparations from NTSR1 expressing HEK-293 cells (Human embryonic kidney cells 293). Membranes were incubated with radiolabeled neurotensin (0.02 nM) in the presence of conjugate/compound starting at a dose of either 100 nM, or 10 nM, using 3× serial dilutions to obtain a 6-pt curve. After a 45 minute incubation, membranes were filtered and washed 3× and counted to determine the remaining [^125I] neurotensin bound to the receptor. IC50 values were determined by a non-linear, least squares regression analysis using MathIQ™ (ID Business Solutions Ltd., UK). The Ki values were calculated using the equation of Cheng and Prusoff (Cheng and Prusoff, Biochem. Pharmacol. 22:3099-3108, 1973) using the observed IC50 of the tested conjugate/compound, the concentration of radioligand employed in the assay, and the historical values for the Kd of the ligand obtained at Eurofins.

T1 sequence (P30989 whole entry): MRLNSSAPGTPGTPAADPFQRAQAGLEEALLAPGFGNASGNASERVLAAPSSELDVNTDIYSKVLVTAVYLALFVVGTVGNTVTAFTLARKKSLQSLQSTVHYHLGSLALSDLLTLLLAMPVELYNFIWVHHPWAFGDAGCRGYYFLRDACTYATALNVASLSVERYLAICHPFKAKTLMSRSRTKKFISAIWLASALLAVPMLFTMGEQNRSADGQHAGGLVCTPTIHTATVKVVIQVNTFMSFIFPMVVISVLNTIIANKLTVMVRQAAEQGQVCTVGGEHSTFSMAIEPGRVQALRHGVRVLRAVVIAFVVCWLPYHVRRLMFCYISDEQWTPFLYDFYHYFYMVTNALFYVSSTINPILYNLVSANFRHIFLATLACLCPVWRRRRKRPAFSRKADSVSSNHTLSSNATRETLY

CO[C@H]1C(=O)[C@]2(C)[C@@H](OC)C[C@H]3OC[C@@]3(OC(C)=O)[C@H]2[C@H](OC(=O)c2ccccc2)[C@]2(O)C[C@H](OC(=O)[C@H](OC(=O)OCCSSC(C)(C)[C@H](NC(C)=O)C(=O)N3CCC[C@H]3C(=O)N[C@@H](CCCNC(=N)N)C(=O)N[C@@H](CCCNC(=N)N)C(=O)N3CCC[C@H]3C(=O)N[C@@H](Cc3ccc(O)cc3)C(=O)N[C@H](C(=O)N[C@@H](CC(C)C)C(=O)O)C(C)(C)C)[C@@H](NC(=O)OC(C)(C)C)c3ccccc3)C(C)=C1C2(C)C [Compound 2]
pKi: 8.40

CO[C@H]1C(=O)[C@]2(C)[C@@H](OC)C[C@H]3OC[C@@]3(OC(C)=O)[C@H]2[C@H](OC(=O)c2ccccc2)[C@]2(O)C[C@H](OC(=O)[C@H](OC(=O)CNC(=O)[C@H](CC(C)C)NC(=O)[C@H](Cc3ccccc3)NC(=O)CNC(=O)CCCCCN3C(=O)CC(SC(C)(C)[C@H](NC(C)=O)C(=O)N4CCC[C@H]4C(=O)N[C@@H](CCCNC(=N)N)C(=O)N[C@@H](CCCNC(=N)N)C(=O)N4CCC[C@H]4C(=O)N[C@@H](Cc4ccc(O)cc4)C(=O)N[C@H](C(=O)N[C@@H](CC(C)C)C(=O)O)C(C)(C)C)C3=O)[C@@H](NC(=O)OC(C)(C)C)c3ccccc3)C(C)=C1C2(C)C (stereo partly drawn) [Compound 3]
pKi: 8.79

CC[C@H](C)[C@H](NC(=O)[C@H](Cc1ccc(O)cc1)NC(=O)[C@@H]1CCCN1C(=O)[C@H](CCCNC(=N)N)NC(=O)[C@@H](CCCNC(=N)N)NC(=O)[C@@H]1CCCN1C(=O)[C@H](CCCCNC(=O)CCSC1CC(=O)N(CCCCCC(=O)NCC(=O)N[C@@H](Cc2ccccc2)C(=O)N[C@@H](CC(C)C)C(=O)NCC(=O)NCCCN2C(=O)CC(SCCC(=O)N(C)[C@@H](C)C(=O)O[C@H]3CC(=O)N(C)c4cc(cc(OC)c4Cl)C/C(C)=C/C=C/[C@@H](OC)[C@@]4(O)C[C@H](OC(=O)N4)[C@@H](C)[C@@H]4O[C@@]34C)C2=O)C1=O)NC(C)=O)C(=O)N[C@@H](C[Si](C)(C)C)C(=O)O (stereo partly drawn) [Compound 38]
pKi: 10.06

COc1cc2cc(c1Cl)N(C)C(=O)C[C@H](OC(=O)[C@H](C)N(C)C(=O)CCSC1CC(=O)N(CCCNC(=O)CNC(=O)[C@H](CC(C)C)NC(=O)[C@H](Cc3ccccc3)NC(=O)CNC(=O)CCCCCN3C(=O)CC(SCCC(=O)NCCCC[C@H](NC(C)=O)C(=O)N4CCC[C@H]4C(=O)N[C@H](CCCNC(=N)N)C(=O)N[C@@H](CCCNC(=N)N)C(=O)N4CCC[C@H]4C(=O)N[C@@H](Cc4ccc(O)cc4)C(=O)N[C@H](C(=O)N[C@@H](C[Si](C)(C)C)C(=O)O)[C@@H](C)OC)C3=O)C1=O)[C@]1(C)O[C@H]1[C@H](C)[C@@H]1C[C@@](O)(NC(=O)O1)[C@H](OC)/C=C/C=C(\C)C2 (stereo partly drawn) [Compound 39]
pKi: 9.10

COc1cc2cc(c1Cl)N(C)C(=O)C[C@H](OC(=O)[C@H](C)N(C)C(=O)CCSC1CC(=O)N(CCCNC(=O)CNC(=O)[C@H](CC(C)C)NC(=O)[C@H](Cc3ccccc3)NC(=O)CNC(=O)CCCCCN3C(=O)CC(SCCC(=O)NCCCC[C@H](NC(C)=O)C(=O)N4CCC[C@H]4C(=O)N[C@H](CCCNC(=N)N)C(=O)N[C@@H](CCCNC(=N)N)C(=O)N4CCC[C@H]4C(=O)N[C@@H](Cc4ccc(O)cc4)C(=O)N[C@H](C(=O)N[C@@H](C[Si](C)(C)C)C(=O)O)C(C)(C)C)C3=O)C1=O)[C@]1(C)O[C@H]1[C@H](C)[C@@H]1C[C@@](O)(NC(=O)O1)[C@H](OC)/C=C/C=C(\C)C2 (stereo partly drawn) [Compound 40]
pKi: 9.44

COc1cc2cc(c1Cl)N(C)C(=O)C[C@H](OC(=O)[C@H](C)N(C)C(=O)CCSC1CC(=O)N(CCCNC(=O)CNC(=O)[C@H](CC(C)C)NC(=O)[C@H](Cc3ccccc3)NC(=O)CNC(=O)CCCCCN3C(=O)CC(SCCC(=O)NCCCC[C@H](NC(C)=O)C(=O)N4CCC[C@H]4C(=O)N[C@H](CCCNC(=N)N)C(=O)N[C@@H](CCCNC(=N)N)C(=O)N4CCC[C@H]4C(=O)N[C@@H](Cc4ccc(O)cc4)C(=O)N[C@H](C(=O)N[C@@H](C[Si](C)(C)C)C(=O)O)C4CCCCC4)C3=O)C1=O)[C@]1(C)O[C@H]1[C@H](C)[C@@H]1C[C@@](O)(NC(=O)O1)[C@H](OC)/C=C/C=C(\C)C2 (stereo partly drawn) [Compound 41]
pKi: 9.05
